Read-outs that look alike come from different tables or passages of the source.
Key:
[1] = system: Phytophthora capsici (ATCC 15399); test: In vitro test to control Phytophthora capsici (colony growth inhibition on potato dextrose agar); type: cell-based
[2] = system: Phytophthora capsici (ATCC 15399); test: as above; type: cell-based; remark: listed apart in the source
Procedure: (§1) Dilution series of Compounds A and B were prepared in dimethylsulfoxide (DMSO), and aliquots added to 25 ml of molten potato dextrose agar at 50° C. to give the appropriate concentrations shown in the table below. Immediately after adding the compound(s), the molten agar was poured into 9-cm diameter petri plates and allowed to harden. The final concentration of DMSO in all plates was 0.5%. Control plates contained DMSO but neither compound. Plates were inoculated in the center with 1 μl of a suspension of Phytophthora capsici (ATCC 15399, obtainable from the American Type Culture Collection, Rockville, Md., U.S.A) zoospores containing 5×10^5 zoospores per milliliter. Three replicate plates were used for each treatment. Fungal colony diameters were measured after growth for 7 days at 25° C., and two measurements were taken from each plate. Inhibition of growth was calculated by comparing growth in the treatments with compound A and/or B with growth in the controls. Degree of inhibition (observed) is expressed as a percentage in Table 1a. The predicted % inhibition in treatments containing both A and B was calculated using the Colby Formula.
as §1, with “B′” for “B”, “(Observed)” for “(observed)”, “1b.” for “1a.”, “Formula, which is known to those skilled in the art (R. S. Colby, Weeds 15, 20-22 (1967)).” for “Formula.”

[3] = Phytophthora capsici, ATCC15399, read-out: % Inhibition (Observed)

Compound: COCC(=O)N(c1c(C)cccc1C)N1CCOC1=O [Compound C, Oxadixyl, reference compound]
- inhibition at 6.25 ppm [1, 3]: 30.3%
- inhibition at 12.5 ppm [1, 3]: 41.3%
- inhibition at 25 ppm [1, 3]: 50.8%

Compound: CCC(C)(NC(=O)c1cc(Cl)c(C)c(Cl)c1)C(=O)CCl (stereo not shown) [Compound A, N-[3′-(1′-chloro-3′-methyl-2′-oxopentan)]-3,5-dichloro-4-methylbenzamide]
- % Inhibition (Observed) ([2]; Table 1b, Compound A 0.04 ppm alone): 31.0%
- % Inhibition (Observed) ([2]; Table 1b, Compound A 0.08 ppm alone): 47.2%
- % Inhibition (Observed) ([2]; Table 1b, Compound A 0.16 ppm alone): 55.2%
- % Inhibition (Observed) ([1]; Table 1a, Compound A 0.1 ppm alone, 7 days at 25° C.): 29.0%
- % Inhibition (Observed) ([1]; Table 1b, Compound A 0.12 ppm alone): 52.3%
- % Inhibition (Observed) ([1]; Table 2, Compound A 0.1 ppm alone): 30.3%
- % Inhibition (Observed) ([1]; Table 2, Compound A 0.2 ppm alone): 39.3%
- % Inhibition (Observed) ([1]; Table 2, Compound A 0.3 ppm alone): 51.8%
- % Inhibition (Observed) ([1]; Table 3, Compound A 0.1 ppm alone): 29.0%
- % Inhibition (Observed) ([1]; Table 3, Compound A 0.2 ppm alone): 38.1%
- % Inhibition (Observed) ([1]; Table 3, Compound A 0.3 ppm alone): 47.4%
- % Inhibition (Observed) ([1]; Table 4, Compound A 0.1 ppm alone): 34.7%
- % Inhibition (Observed) ([1]; Table 4, Compound A 0.2 ppm alone): 44.5%
- % Inhibition (Observed) ([1]; Table 4, Compound A 0.3 ppm alone): 49.4%

Compound: Cc1cccc(C)c1N(C(=O)CCl)C1CCOC1=O (stereo not shown) [Compound D, Ofurace, reference compound]
- inhibition at 12.5 ppm ([1]; Phytophthora capsici, ATCC15399, Table 3, Compound D 12.5 ppm alone, read-out: % Inhibition (Observed)): 52.1%
- inhibition at 25 ppm ([1]; Phytophthora capsici, ATCC15399, Table 3, Compound D 25 ppm alone, read-out: % Inhibition (Observed)): 56%

Compound: COCC(=O)N(c1c(C)cccc1C)C(C)C(=O)OC (racemic) [Compound B′, racemic mixture of Metalaxyl, reference compound]
- % Inhibition (Observed) ([1]; Table 1b, Compound B′ 0.6 ppm alone, 7 days at 25° C.): 35.1%
- % Inhibition (Observed) ([1]; Table 1b, Compound B′ 0.9 ppm alone, 7 days at 25° C.): 48.0%

Compound: COC(=O)C(C)N(C(=O)Cc1ccccc1)c1c(C)cccc1C (stereo not shown) [Compound E, Benalaxyl, reference compound]
- inhibition at 20 ppm ([1]; Phytophthora capsici, ATCC15399, Table 4, Compound E 20 ppm alone, read-out: % Inhibition (Observed)): 46.6%

Compound: COCC(=O)N(c1c(C)cccc1C)[C@H](C)C(=O)OC (single isomer, unassigned) [Compound B, R-Enantiomer of Metalaxyl, reference compound]
- % Inhibition (Observed) ([2]; Table 1a, Compound B 0.25 ppm alone, 7 days at 25° C.): 17.9%
- % Inhibition (Observed) ([2]; Table 1a, Compound B 0.75 ppm alone, 7 days at 25° C.): 57.6%
- % Inhibition (Observed) ([1]; Table 1a, Compound B 0.5 ppm alone, 7 days at 25° C.): 56.0%

From patent US6353020B1, “Fungicidal compositions containing N-acetonylbenzamides” (Dow AgroSciences LLC, priority 1998, dated 2002)
